Measurements as given in patent US4771068A, “Mitomycin derivatives having anti-tumor and antibacterial utility” (priority 1985, dated 1988).
≈ marks a conversion by molar mass, not a printed value.

What was measured:
[1] = test system: Streptococcus faecalis ATCC 10541; assay: Antibacterial activity (minimum growth inhibitory concentration), agar dilution method; assay type: cell-based; settings: Enterococcus faecalis, ATCC10541; Streptococcus faecalis ATCC 10541, pH 7.0, agar dilution method; read-out: minimum growth inhibitory concentration, SF
Procedure: (§1) Antibacterial activities of Compounds (I) against various bacteria are shown by the minimum growth inhibitory concentration (μg/ml) in Table 3. The minimum growth inhibitory concentration was measured at pH 7.0 according to the agar dilution method. In the table, bacteria are indicated by the following letters.
SF: Streptococcus faecalis ATCC 10541

Bacillus subtilis 10707 = assay: as above; assay type: cell-based; settings: Bacillus subtilis 10707, pH 7.0, agar dilution method; read-out: minimum growth inhibitory concentration, BS
Procedure: as §1
BS: Bacillus subtilis 10707

[2] = test system: Proteus vulgalis ATCC 6897; assay: as above; assay type: cell-based; settings: pH 7, read-out: minimum growth inhibitory concentration, PV
Procedure: as §1
PV: Proteus vulgalis ATCC 6897

peripheral leucocytes = assay: Effect on the peripheral leucocytes number; assay type: in vivo, mouse (ddY strain); settings: minimum dose reducing peripheral leucocytes number to 4000/mm^3; tumour-carrying ddY mice, intraperitoneal, 4 days after administration
Procedure: WBC4000 : Minimum dose of a test compound which reduces the
peripheral leucocytes number to 4000/mm^3.
Sarcoma 180 solid tumour cells (5×10^6) were subcutaneously implanted into the right axilla of each mouse (body weight 20±2 g) of a group consisting of 5 male mice (ddY strain). 24 hours after implantation,a test compound was intraperitoneally administered to each animal. 4 days after the administration, blood (each 0.02 ml) was collected from the suborbital plexus vein of each tumour-carrying animal. The collected sample of blood was dispersed in 9.98 ml of Cell-Kit Seven solution. One drop of saponin solution was added to the sample to dissolve erythrocytes and then a microcell counter was used to count the number of leucocytes. […] The relationship between the number of peripheral leucocytes and the dose of the test compound was plotted and the dose (i.e., WBC4000) corresponding to 4000 peripheral leucocytes/mm^3 (about half the number of leucocytes of normal mice) was obtained.

[3] = test system: Staphylococcus aureus ATCC 6538P; assay: Antibacterial activity (minimum growth inhibitory concentration), agar dilution method; assay type: cell-based; settings: ATCC6538P, pH 7.0, agar dilution method, read-out: minimum growth inhibitory concentration, SA
Procedure: as §1
SA: Staphylococcus aureus ATCC 6538P

Solubility in water = assay type: physicochemical; settings: aqueous buffer; 0.03M phosphate buffer (pH 7.0), 22° C., 15 minutes
Procedure: 1 mg of a test compound was added to 100 μl of 0.03M phosphate buffer (pH 7.0). The mixture was stirred at 22° C. for 15 minutes and filtered through Ekicrodisc 3 (disposable filter unit, Gelman Sciences Japan Co.) to remove insoluble matters. The filtrate is a saturated solution of the test compound. Predetermined amount of the saturated solution was injected into a high performance liquid chromatograph [column: YMC-A212 (C8) .phi.6 mm, 150 mm, eluting solvent: 0.01M-ammonium acetate/methanol, wave length for detection: 254 nm] and peak area of the chromatogram was calculated. Separately, a solution of the test compound in methanoL having a certain concentration of the compound was similarly subjected to the chromatography to make the calibration curve. The solubility of the test compound was calculated by the calibration curve.

Acute toxicity = settings: mouse, in vivo, ip; ddY mice, intraperitoneally once, 14 days observation
Procedure: Each animal of the test group consisting of 5 ddY mice was administered intraperitoneally once with a test compound. […] The LD50 was determined by Beherns Kaerber's method.

[4] = test system: Klebsiella pneumoniae ATCC 10031; assay: Antibacterial activity (minimum growth inhibitory concentration), agar dilution method; assay type: cell-based; settings: ATCC10031; Klebsiella pneumoniae ATCC 10031, pH 7.0, agar dilution method; read-out: minimum growth inhibitory concentration, KP
Procedure: as §1
KP: Klebsiella pneumoniae ATCC 10031

Sarcoma 180 solid tumour = assay: animal or person; settings: for CIc: CI of test compound divided by CI of mitomycin C as control in the same condition; for ED50: Mus musculus, Sarcoma-180, iv, 168 h; for CI (LD50/ED50): chemotherapeutic index
Source text: CIc : Value given by division of CI of each test compound by CI of
determination of antitumour activity of the test compound. A CIc
5×10^6 cells of Sarcoma 180 solid tumour were intraperitoneally implanted into ddY mice. 7 days later, ascites cells were sampled. The cells were washed once with a sterilized physiological sodium chloride solution and were used to prepare a cell suspension containing 5×10^7 cells per ml with a sterilized physiological sodium chloride solution. On each occasion, 0.1 ml of the cell suspension was subcutaneously implanted into the right axilla of a male mouse (ddY strain; body weight 20±2 g).
The anti-tumour activity was determined in the following manner. 7 days after the implantation, the major axis (a) and the minor axis (b) of the tumour were measured to calculate a value of "a×b^2 /2" which corresponds to the volume of the tumour. The anti-tumour activity was expressed by the ratio (T/C) of the volume (T) of the tumours of the group of animals administered with the test compound to the corresponding volume (C) of tumours of the untreated animals.
On graph paper, T/C was indicated by an arithmetic scale on the longitudinal axis and the administered amount of the test compound was indicated by a logarithmic scale on the lateral axis.

SMILES | MIC [1] [µg/mL] | MIC (Bacillus subtilis 10707) [µg/mL] | MIC [2] [µg/mL] | WBC4000 (peripheral leucocytes) [mg/kg] | MIC [3] [µg/mL] | solubility at 0.25 h (Solubility in water) [µg/mL] | LD50 at 336 h (Acute toxicity) [mg/kg] | MIC [4] [µg/mL] | CIc (Sarcoma 180 solid tumour) | ED50 (Sarcoma 180 solid tumour) [mg/kg] | CI (LD50/ED50) (Sarcoma 180 solid tumour)
CO[C@@]12[C@H](COC(N)=O)C3=C(C(=O)C(C)=C(NCCSC(C)=O)C3=O)N1C[C@@H]1N[C@@H]12 [Compound 1, 7-N-[(2-acetylthio)ethyl]mitomycin] | < 0.02 | < 0.02 | 1.3 (≈ 2.98 µM) | 9.5 | < 0.02 | 5600 (≈ 12800 µM) | 5.6 | 0.078 (≈ 0.179 µM) | 1.2 | 2.3 | 2.4
CC(=O)SCCNC1=C(C)C(=O)C2=C(C1=O)[C@H](COC(N)=O)[C@@]1(O)[C@@H]3[C@H](CN21)N3C (stereo partly shown) [Compound 2] | 3.1 (≈ 7.1 µM) | 0.78 (≈ 1.79 µM) | 25 (≈ 57.3 µM) | 14.1 | 3.1 (≈ 7.1 µM) | 8900 (≈ 20400 µM) | 26.3 | 6.3 (≈ 14.4 µM) | 1.9 | 5.6 | 4.7
CO[C@@]12[C@H](COC(N)=O)C3=C(C(=O)C(C)=C(NCCSC(C)=O)C3=O)N1C[C@H]1[C@@H]2N1C (stereo partly shown) [Compound 3] | 0.039 (≈ 0.0866 µM) | < 0.02 | 20 (≈ 44.4 µM) | 11.0 | 0.078 (≈ 0.173 µM) | 3800 (≈ 8430 µM) | 9.4 | 1.3 (≈ 2.89 µM) | 0.88 | 5.6 | 1.7
C=C1C2=C(C(=O)C(C)=C(NCCSC(C)=O)C2=O)N2C[C@H]3[C@H](N3C)[C@]12O (stereo partly shown) [Compound 4] | > 100 | 6.3 (≈ 16.8 µM) | 100 (≈ 266 µM) | 27.1 | 50 (≈ 133 µM) | 1900 (≈ 5060 µM) | 45 | 25 (≈ 66.6 µM) | 1.6 | 14.9 | 3.0
CO[C@@]12[C@H](COC(N)=O)C3=C(C(=O)C(C)=C(NCCCSC(C)=O)C3=O)N1C[C@@H]1N[C@@H]12 [Compound 7] | < 0.02 | < 0.02 | 2.5 (≈ 5.55 µM) | > 25 | 0.039 (≈ 0.0866 µM) | 3500 (≈ 7770 µM) | 11.3 | 0.31 (≈ 0.688 µM) | 0.88 | 5.2 | 2.2
CC(=O)SCCCNC1=C(C)C(=O)C2=C(C1=O)[C@H](COC(N)=O)[C@@]1(O)[C@@H]3[C@H](CN21)N3C (stereo partly shown) [Compound 8, 7-N-(3-acetylthiopropyl)mitomycin D] | 50 (≈ 111 µM) | 13 (≈ 28.9 µM) |  |  | > 100 | 9600 (≈ 21300 µM) |  |  |  |  | 
CO[C@@]12[C@H](COC(N)=O)C3=C(C(=O)C(C)=C(NCCCCSC(C)=O)C3=O)N1C[C@@H]1N[C@@H]12 [Compound 9] | < 0.02 | < 0.02 | 5 (≈ 10.8 µM) | 65.2 | 0.039 (≈ 0.084 µM) | 2000 (≈ 4310 µM) | 90 | 0.31 (≈ 0.667 µM) | 1.6 | 21.7 | 4.1
CO[C@@]12[C@H](COC(N)=O)C3=C(C(=O)C(C)=C(NCCCCCSC(C)=O)C3=O)N1C[C@@H]1N[C@@H]12 [Compound 10] | 0.039 (≈ 0.0815 µM) | 0.078 (≈ 0.163 µM) | 5 (≈ 10.4 µM) | > 75 | 0.078 (≈ 0.163 µM) | 1000 (≈ 2090 µM) | > 75 | 1.3 (≈ 2.72 µM) | > 1.1 | 37.5 | > 2.0
CC(=S)SCCNC1=C(C)C(=O)C2=C(C1=O)[C@H](COC(N)=O)[C@@]1(O)[C@@H]3[C@H](CN21)N3C (stereo partly shown) [Compound 27, 7-N-(2-dithioacetyloxyethyl)mitomycin D] | 0.39 (≈ 0.862 µM) | < 0.049 | 3.1 (≈ 6.85 µM) | 15.5 | 0.2 (≈ 0.442 µM) |  | 13.1 | 0.78 (≈ 1.72 µM) | 1.1 | 3.4 | 3.9
CO[C@@]12[C@H](COC(N)=O)C3=C(C(=O)C(C)=C(NCCSC(C)=S)C3=O)N1C[C@H]1[C@@H]2N1C (stereo partly shown) [Compound 28] | 0.039 (≈ 0.0836 µM) | < 0.02 | 2.5 (≈ 5.36 µM) | 10.4 | < 0.02 |  | 13.1 | 1.3 (≈ 2.79 µM) | 1.1 | 3.3 | 4.0
CO[C@@]12[C@H](COC(N)=O)C3=C(C(=O)C(C)=C(NCCCCSC(C)=S)C3=O)N1C[C@@H]1N[C@@H]12 [Compound 30] | 0.31 (≈ 0.645 µM) | 0.31 (≈ 0.645 µM) | 5 (≈ 10.4 µM) | 58.1 | 0.31 (≈ 0.645 µM) |  | > 100 | 1.3 (≈ 2.7 µM) | > 1.1 | 37.7 | > 2.7
CO[C@@]12[C@H](COC(N)=O)C3=C(C(=O)C(C)=C(NCCCCCCSC(C)=S)C3=O)N1C[C@@H]1N[C@@H]12 [Compound 31] | 2.5 (≈ 4.91 µM) | 2.5 (≈ 4.91 µM) | 10 (≈ 19.7 µM) | 27.5 | 1.3 (≈ 2.56 µM) |  | > 100 | 2.5 (≈ 4.91 µM) | > 1.5 | 28.1 | > 3.6
